As for `COC1(c2ccc(C(F)(F)F)cc2CN(Cc2cc(C(F)(F)F)cc(C(F)(F)F)c2)c2nnn(C)n2)CCCCCC1` [Example 52, N-(2-(1-methoxycycloheptyl)-5-(trifluoromethyl)benzyl)-N-(3,5-bis(trifluoromethyl)benzyl)-2-methyl-2H-tetrazol-5-amine], the melting point (as a rule, the temperature, or range, at which the solid turns liquid) lay in the range of 103 to 104 °C.
